Experiment [1] deals with T1, Recombinant Human 17β-HSD1 (Homo sapiens, UniProt P14061).
T1 construct: made in house; host or cells: Sd9 (Sf9) insect cells, baculovirus (Bac to Bac Expression System)
T1 sequence (P14061 1-328): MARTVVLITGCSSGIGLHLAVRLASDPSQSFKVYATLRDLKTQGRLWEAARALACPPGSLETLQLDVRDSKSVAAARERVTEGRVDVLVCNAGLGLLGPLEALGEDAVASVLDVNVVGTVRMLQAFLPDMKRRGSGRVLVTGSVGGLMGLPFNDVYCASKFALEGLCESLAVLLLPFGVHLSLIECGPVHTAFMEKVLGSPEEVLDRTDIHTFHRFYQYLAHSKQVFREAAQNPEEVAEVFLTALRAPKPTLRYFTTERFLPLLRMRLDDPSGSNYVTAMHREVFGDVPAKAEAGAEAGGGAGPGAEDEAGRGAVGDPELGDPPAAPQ
Nature of the experiment: Inhibition of recombinant human 17β-HSD1 (conversion of 3H-estrone to estradiol, HPLC). The following applies: inhibitor at 1 μM; 30 nM estrone, 1 mM NADPH, 30 min at RT; read-out: 17β-HDS1 Inhibition % at 1 μM. The experiment is classed as biochemical. Here is the method: 17β-HSD1 Production and Isolation:
Recombinant baculovirus was generated by the “Bac to Bac Expression System” (Invitrogen). Recombinant bacmid was transfected to Sd9 insect cells using “Cellfectin Reagent” (Invitrogen). 60 h later cells were harvested; the microsomal fraction was isolated as described by Puranen, T. J., Poutanen, M. H., Peltoketo, H. E., Vihko, P. T. and Vihko, R. K. (1994) Site-directed mutagenesis of the putative active site of human 17 β-hydroxysteroid dehydrogenase type 1. Biochem. J. 304: 289-293. Aliquots were stored frozen until determination of enzymatic activity.
Assay—Inhibition of Recombinant Human 17β-HSD1:
Recombinant protein (1 μg/ml) was incubated in 20 mM KH2PO4 pH 7.4 with 30 nM estrone (including 800.000 cpm/ml of ^3H-estrone) and 1 mM NADPH for 30 min at RT, in the presence of the potential inhibitor at concentrations 1 μM or 0.1 μM. Inhibitor stock solutions were prepared in DMSO. Final concentration of DMSO was adjusted to 1% in all samples. The enzyme reaction was stopped by addition of 10% trichloroacetic acid (final concentration). Samples were centrifuged in a microtiter plate at 4000 rpm for 10 min. Supernatants were applied to reverse phase HPLC on a Waters Symmetry C18 column, equipped with a Waters Sentry Guard column. Isocratic HPLC runs were performed at RT at a flow rate of 1 ml/min in acetonitrile:water 48:52 as running solvent. Radioactivity was monitored in the eluate by a Packard Flow Scintillation Analyzer. Total radioactivity for estrone and estradiol were determined in each sample and percent conversion of estrone to estradiol was calculated according to the following formula:
(§1) Percent inhibition was calculated flowingly: % inhibition=100−% conversion

Experiment [2] addresses T2, Recombinant Human 17β-HSD2 (Homo sapiens, UniProt P37059).
T2 construct: made in house; host or cells: Sd9 (Sf9) insect cells, baculovirus (Bac to Bac Expression System)
T2 sequence (P37059 1-387): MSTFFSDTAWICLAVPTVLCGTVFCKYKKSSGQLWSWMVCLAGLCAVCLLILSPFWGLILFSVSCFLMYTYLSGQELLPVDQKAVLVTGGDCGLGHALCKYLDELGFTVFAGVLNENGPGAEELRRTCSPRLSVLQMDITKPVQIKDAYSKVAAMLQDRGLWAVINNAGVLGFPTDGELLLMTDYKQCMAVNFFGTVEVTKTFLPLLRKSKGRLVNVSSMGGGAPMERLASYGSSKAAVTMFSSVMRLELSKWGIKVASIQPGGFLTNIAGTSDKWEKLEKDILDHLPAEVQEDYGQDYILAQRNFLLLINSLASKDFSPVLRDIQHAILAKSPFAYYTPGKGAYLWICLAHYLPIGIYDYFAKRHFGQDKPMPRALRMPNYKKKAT
Description: Inhibition of recombinant human 17β-HSD2 (conversion of 3H-estradiol to estrone, HPLC). The format is biochemical. The following applies: inhibitor at 1 μM; 50 nM estradiol, 1 mM NADH, 30 min at RT; read-out: 17β-HSD2 Inhibition % at 1 μM. Here is the method: 17β-HSD2 Production and Isolation:
Similarly to 17β-HSD1 the Recombinant baculovirus was generated by the “Bac to Bac Expression System” (Invitrogen). Recombinant bacmid was transfected to Sd9 insect cells using “Cellfectin Reagent” (Invitrogen). 60 h later cells were harvested and supernatant were fractionated by the following protocol: • cells were dissolved into 40 ml of A-buffer (40 mM TRIS, pH8.0, 20% glycerol, 20 μM NAD, 0.4 mM PMSF, 150 mM NaCl, 0.5% dodecyl-β-maltoside+protease inhibitor cocktail) • cells were sonicated • lysate was incubated on ice for 15 min • lysate was centrifuged 5000 rpm 15 min, +4° C. • centrifugation of the supernatant 180.000 g 30 min, +4° C. • pellet was dissolved into 8 ml of A-buffer • not resuspended material was removed by centrifugation 5000 rpm 15 min, +4° C. • the clear supernatant was divided into 100 μl aliquots and were stored frozen until determination of enzymatic activity.
The amount of 17β-HSD2 was analysed by immunoblotting and total protein concentration of each extract batch was determined.
Assay—Inhibition of Recombinant Human 17β-HSD2:
Recombinant protein (4 μg/ml) was incubated in 20 mM KH2PO4 pH 8.5 with 50 nM estradiol (including 800.000 cpm/ml of ^3H-estradiol) and 1 mM NADH for 30 min at RT, in the presence of the potential inhibitor at concentrations 1 μM or 0.1 μM. Inhibitor stock solutions were prepared in DMSO. Final concentration of DMSO was adjusted to 1% in all samples. The enzyme reaction was stopped by addition of 10% trichloroacetic acid (final concentration). Samples were centrifuged in a microtiter plate at 4000 rpm for 10 min. Supernatants were applied to reverse phase HPLC on a Waters Symmetry C18 column, equipped with a Waters Sentry Guard column. Isocratic HPLC runs were performed at RT at a flow rate of 1 ml/min in acetonitrile:water 48:52 as running solvent. Radioactivity was monitored in the eluate by a Packard Flow Scintillation Analyzer. Total radioactivity for estrone and estradiol were determined in each sample and percent conversion of estradiol to estrone was calculated according to the following formula:
as §1

`Cc1cnc(NC(=O)CC[C@@H]2CC(NC(C)C)[C@@]3(C)CCC4c5ccc(O)cc5CCC4C23)s1` (stereo partly drawn) [Compound 73, 3-[(13S,15R)-3-Hydroxy-17-isopropylamino-13-methyl-7,8,9,11,12,13,14,15,16,17-decahydro-6H-cyclopenta[a]phenanthren-15-yl]-N-(5-methylthiazol-2-yl)propionamide]: the inhibition at 1 µM came to 86% in experiment [1] and 11% in experiment [2].

For `Cc1cnc(NC(=O)CC[C@@H]2CC(NCCCN(C)C)[C@@]3(C)CCC4c5ccc(O)cc5CCC4C23)s1` (stereo partly drawn) [Compound 80a, 3-[(13S,15R)-17-(3-Dimethylamino-propylamino)-3-hydroxy-13-methyl-7,8,9,11,12,13,14,15,16,17-decahydro-6H-cyclopenta[a]phenanthren-15-yl]-N-(5-methylthiazol-2-yl)propionamide], the inhibition at 1 µM was 70% in experiment [1] and 1% in experiment [2].

With `Cc1cnc(NC(=O)CC[C@@H]2CC(NCCN(C)C)[C@@]3(C)CCC4c5ccc(O)cc5CCC4C23)s1` (stereo partly drawn) [Compound 81, 3-[(13S,15R)-17-(2-Dimethylamino-ethylamino)-3-hydroxy-13-methyl-7,8,9,11,12,13,14,15,16,17-decahydro-6H-cyclopenta[a]phenanthren-15-yl]-N-(5-methylthiazol-2-yl)propionamide], the inhibition at 1 µM in experiment [1] was determined as 71%; in experiment [2], 2%.

Turning to `Cc1cnc(NC(=O)CC[C@@H]2C[C@H](NCc3ccco3)[C@@]3(C)CCC4c5ccc(O)cc5CCC4C23)s1` (stereo partly drawn) [Compound 76, 3-((13S,15R)-17-[(Furan-2-ylmethyl)-amino]-3-hydroxy-13-methyl-7,8,9,11,12,13,14,15,16,17-decahydro-6H-cyclopenta[a]phenanthren-15-yl]-N-(5-methylthiazol-2-yl)propionamide], the inhibition at 1 µM in experiment [1] was 85%; in experiment [2] it was 4%.

Consider `COCCNC1C[C@@H](CCC(=O)Nc2ncc(C)s2)C2C3CCc4cc(O)ccc4C3CC[C@]12C` (stereo partly drawn) [Compound 77, 3-((13S,15R)-3-Hydroxy-17-(2-methoxyethylamino)-13-methyl-7,8,9,11,12,13,14,15,16,17-decahydro-6H-cyclopenta[a]phenanthren-15-yl]-N-(5-methylthiazol-2-yl)propionamide], for which the inhibition at 1 µM in experiment [1] was 84%; in experiment [2], 1%.

As to `COc1ccc2c(c1)CCC1C2CC[C@@]2(C)C1[C@H](CCC(=O)Nc1ncc(C)s1)C[C@@H]2OP(=O)(O)O` (stereo partly drawn) [Compound 46, Phosphoric acid mono-{(13S,15R,17S)-3-methoxy-13-methyl-15-[2-(5-methylthiazol-2-ylcarbamoyl)-ethyl]-17-oxo-7,8,9,11,12,13,14,15,16,17-decahydro-6H-cyclopenta[a]phenanthren-17-yl}ester], the inhibition at 1 µM in experiment [1] was determined as 84%; in experiment [2], 1%.

For `CC(=O)Oc1ccc2c(c1)CCC1C2CC[C@@]2(C)C1[C@H](CCC(=O)Nc1ncc(C)s1)C[C@@]2(O)C#N` (stereo partly drawn) [Compound 22, (13S,15R,17S)-17-cyano-17-hydroxy-13-methyl-15-(3-((5-methylthiazol-2-yl)amino)-3-oxopropyl)-7,8,9,11,12,13,14,15,16,17-decahydro-6H-cyclopenta[a]phenanthren-3-yl acetate], the inhibition at 1 µM in experiment [1] turned out to be 71%; in experiment [2], 1%.

On to `CO[C@H]1C[C@@H](CCC(=O)Nc2ncc(C)s2)C2C3CCc4c(cc(Br)c(O)c4Br)C3CC[C@@]21C` (stereo partly drawn) [Compound 29, 3-((13S,15R,17S)-2,4-dibromo-3-hydroxy-17-methoxy-13-methyl-7,8,9,11,12,13,14,15,16,17-decahydro-6H-cyclopenta[a]phenanthren-15-yl)-N-(5-methylthiazol-2-yl)propanamide], for which the inhibition at 1 µM was 67% in experiment [1] and 3% in experiment [2].

For the compound `Cc1cnc(NC(=O)CC[C@@H]2C[C@@](O)(C#N)[C@@]3(C)CCC4c5ccc(O)cc5CCC4C23)s1` (stereo partly drawn) [Compound 21, 3-((13S,15R,17S)-17-cyano-3,17-dihydroxy-13-methyl-7,8,9,11,12,13,14,15,16,17-decahydro-6H-cyclopenta[a]phenanthren-15-yl)-N-(5-methylthiazol-2-yl)propanamide], the inhibition at 1 µM in experiment [1] came out at 76%; in experiment [2], 6%.

In the case of `COCCNC1C[C@@H](CCC(=O)Nc2ncc(C)s2)C2C3CCc4cc(O)c(C(C)(C)C)cc4C3CC[C@]12C` (stereo partly drawn) [Compound 79, 3-((13S,15R)-2-tert-Butyl-3-hydroxy-17-(2-methoxyethylamino)-13-methyl-7,8,9,11,12,13,14,15,16,17-decahydro-6H-cyclopenta[a]phenanthren-15-yl)-N-(5-methylthiazol-2-yl)propionamide], the inhibition at 1 µM in experiment [1] is 75%; in experiment [2], 17%.

With `CC(=O)O[C@H]1C[C@@H](CCC(=O)Nc2ncc(C)s2)C2C3CCc4cc(O)ccc4C3CC[C@@]21C` (stereo partly shown) [Compound 36], the inhibition at 1 µM in experiment [1] came to 64%; in experiment [2], 3%.

Take `Cc1cnc(NC(=O)CC[C@@H]2C[C@H](O)[C@@]3(C)CCC4c5ccc(O)cc5CCC4C23)s1` (stereo partly drawn) [Compound 1, 3-((13S,15R,17S)-3,17-Dihydroxy-13-methyl-7,8,9,11,12,13,14,15,16,17decahydro-6H-cyclopenta[a]phenanthren-15-yl)-N-(5-methylthiazol-2-yl)propanamide]: the inhibition at 1 µM in experiment [1] was 98%; in experiment [2], 48%.

As to `COc1ccc2c(c1)CCC1C2CC[C@@]2(C)C1[C@H](CCC(=O)Nc1ncc(C)s1)C[C@@H]2O` (stereo partly drawn) [Compound 6, 3-((13S,15R,17S)-17-Hydroxy-3-methoxy-13-methyl-7,8,9,11,12,13,14,15,16,17-decahydro-6H-cyclopenta[a]phenanthren-15-yl)-N-(5-methylthiazol-2-yl)propanamide], the inhibition at 1 µM in experiment [1] came out at 58%; in experiment [2], 3%.

`Cc1cnc(NC(=O)CC[C@@H]2C[C@H](NCC(C)C)[C@@]3(C)CCC4c5ccc(O)cc5CCC4C23)s1` (stereo partly drawn) [Compound 74, 3-((13S,15R)-3-Hydroxy-17-isobutylamino-13-methyl-7,8,9,11,12,13,14,15,16,17-decahydro-6H-cyclopenta[a]phenanthren-15-yl]-N-(5-methylthiazol-2-yl)propionamide]: the inhibition at 1 µM in experiment [1] turned out to be 80%; in experiment [2], 2%.

Values taken from patent US9850272B2, “Therapeutically active estratrienthiazole derivatives as inhibitors of 17.beta-hydroxy-steroid dehydrogenase, type 1” (FORENDO PHARMA LTD, priority 2013, dated 2017).
